Test results taken from patent US20090209525A1, “ENABLING METHODS TO IDENTIFY ALLOSTERIC MODULATORS OF RECEPTOR ACTIVITY” (priority 2006, published 2009).
Where a chain is given by its changes, count along the chain named. Where two headings read alike, the source gives them in different places.

How the values were obtained:
M1 W101A receptor [1] = biological target: T1, M1 W101A receptor (Rattus norvegicus, UniProt P08482, W101A); experiment: R-SAT HTS on M1 W101A receptor; type: cell-based; conditions: compound at 3 μM, triplicate retest, activity over basal cellular response
T1 construct: expressed in transfected cells
T1 sequence (P08482 1-460 W101A): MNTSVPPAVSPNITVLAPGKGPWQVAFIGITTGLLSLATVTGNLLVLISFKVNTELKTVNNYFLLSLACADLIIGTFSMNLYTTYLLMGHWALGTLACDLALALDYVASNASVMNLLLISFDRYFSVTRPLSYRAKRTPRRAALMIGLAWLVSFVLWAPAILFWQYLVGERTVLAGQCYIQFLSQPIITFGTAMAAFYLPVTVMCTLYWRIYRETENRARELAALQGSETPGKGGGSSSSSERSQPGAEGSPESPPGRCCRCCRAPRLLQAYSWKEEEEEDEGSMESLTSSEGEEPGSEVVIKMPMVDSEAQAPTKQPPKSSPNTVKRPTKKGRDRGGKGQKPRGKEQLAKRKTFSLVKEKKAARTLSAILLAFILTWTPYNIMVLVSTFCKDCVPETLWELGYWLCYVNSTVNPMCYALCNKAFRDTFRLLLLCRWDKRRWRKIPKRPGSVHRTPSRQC
Method: (§1) NIH-3T3 cells were grown in 96-well tissue culture plates to 70 to 80% confluence in Dulbecco's modified essential media (DMEM) supplemented with 100 units/ml penicillin, 100 micrograms/ml streptomycin, 0.3 mg/ml L-glutamine (1% PSG, GIBCO) and 10% calf serum (Sigma-Aldrich). Cells were transfected for 18 h with DMEM containing 0.08 micrograms/ml receptor DNA and 0.3 micrograms/ml pSI-Bgal (Promega, Madison Wis.), 0.5% v/v Polyfect (Qiagen, Valencia Calif.). Medium was replaced with DMEM containing 1% PSG, 0.5% calf serum, 2% cyto-sf3 (Kemp Biotechnologies, Frederick, Md.), and varying concentrations of ligand. […] Cells were grown in a humidified atmosphere with 5% ambient CO2 for 5 days. Medium was removed from the plates, and beta-galactosidase activity was measured by the addition of o-nitrophenyl -d-galactopyranoside in phosphate-buffered saline with 5% Nonidet P-40.
Cells were contacted with over 280,000 compounds at a concentration of 3 μM.

M1 W101A receptor [2] = biological target: T1, M1 W101A receptor; experiment: R-SAT HTS on M1 W101A receptor; type: cell-based; conditions: compound at 300 nM, triplicate retest, activity over basal cellular response
[3] = biological target: T2, rat M1 wild-type receptors (Rattus norvegicus, UniProt P08482); experiment: R-SAT functional assay, wild-type receptor; type: cell-based
T2 construct: expressed in transfected cells
T2 sequence (P08482 1-460): T1 sequence (P08482 1-460 W101A) with A101W
Method: (§2) Cells are co-transfected for 18 h with DMEM containing 0.08 micrograms/ml of an expression vector for the expression of the mutant receptor and 0.3 micrograms/ml pSI-Bgal (Promega, Madison Wis.), and 0.5% v/v Polyfect (Qiagen, Valencia Calif.), as recommended by the manufacturer. On day three, the medium is replaced with DMEM containing 1% PSG, 0.5% calf serum, 2% cyto-sf3 (Kemp Biotechnologies, Frederick, Md.), and varying concentrations of the compounds to be tested. Cells are grown in a humidified atmosphere with 5% ambient CO2 for 5 days. The media is removed from the plates, and beta-galactosidase activity is measured by the addition of o-nitrophenyl -d-galactopyranoside in phosphate-buffered saline with 5% Nonidet P-40. […] The following equation is fitted to the data using GraphPad Prism software (San Diego, Calif.):
as §1
(§3) Receptor Selection and Amplification (R-SAT™) Assays: R-SAT™ functional assays were carried out as follows. NIH-3T3 cells were grown in 96-well tissue culture plates to 70 to 80% confluence in Dulbecco's modified essential media (DMEM) supplemented with 100 units/ml penicillin, 100 micrograms/ml streptomycin, 0.3 mg/ml L-glutamine (1% PSG, GIBCO) and 10% calf serum (Sigma-Aldrich). Cells were transfected for 18 h with DMEM containing 0.08 micrograms/ml receptor DNA and 0.3 micrograms/ml pSI-Bgal (Promega, Madison Wis.), 0.5% v/v Polyfect (Qiagen, Valencia Calif.). The transfected cells were frozen away. Cells were thawed and added to 96 well plates with DMEM containing 1% PSG, 0.5% calf serum, 2% cyto-sf3 (Kemp Biotechnologies, Frederick, Md.), and varying concentrations of ligand.
(§4) In an effort to further characterize monoamine modulators, we used a panel of mutant muscarininc M1 receptors to analyze the activity and potency of orthosteric modulators and various allosteric modulators at those receptors.

rat M1 Y381A receptor = biological target: T3, rat M1 Y381A receptor (Rattus norvegicus, UniProt P08482, Y381A); experiment: R-SAT functional assay, Y381A mutant; type: cell-based
T3 construct: expressed in transfected cells; host or cells: NIH-3T3
T3 sequence (P08482 1-460 Y381A): T1 sequence (P08482 1-460 W101A) with A101W, Y381A
Method: as §2, §1, §3, §4

M1 Y381A receptor = biological target: T4, M1 Y381A receptor (Rattus norvegicus, UniProt P08482, Y381A); experiment: R-SAT antagonism of muscarinic agonists, Y381A; type: cell-based; conditions: M1 YS81A as printed; maximal inhibition of NDMC (3 μM) response
T4 construct: expressed in transfected cells; host or cells: NIH-3T3
T4 sequence (P08482 1-460 Y381A): T1 sequence (P08482 1-460 W101A) with A101W, Y381A
Method: as §3

rat M1 W101A receptor = biological target: T5, rat M1 W101A receptor (Rattus norvegicus, UniProt P08482, W101A); experiment: R-SAT functional assay, W101A mutant; type: cell-based; conditions: M1 W101A
T5 construct: expressed in transfected cells
T5 sequence (P08482 1-460 W101A): T1 sequence (P08482 1-460 W101A)
Method: as §2, §1, §3, §4

M1 Y381 mutant receptor = biological target: T6, M1 Y381 mutant receptor (Rattus norvegicus, UniProt P08482, Y381A); conditions: result in words; FIGS. 8A-8C
T6 sequence (P08482 1-460 Y381A): T1 sequence (P08482 1-460 W101A) with A101W, Y381A

[4] = Table 10, M1 Wild-Type, maximum response relative to carbachol
[5] = Table 10, M1 Y381A, maximum response relative to AC-42
[6] = Table 4, M1 wild type, maximum response relative to xanomeline
[7] = Table 4, maximum response relative to xanomeline
[8] = Table 4, M1 Y381A, maximum response relative to xanomeline

For `CCCOC1CCN(C[C@@H](C)CN2C(=O)COc3ccccc32)CC1.O=C(O)C(=O)O`, the “3 μM Avg.” value (M1 W101A receptor [1]) was 4.63 and the “300 nM Avg” value (M1 W101A receptor [2]) was 4.14.
`CCCOC1CCN(CCCn2c(=O)ccc3ccccc32)CC1` was tested, and the “3 μM Avg.” value (M1 W101A receptor [1]) was 4.65 and the “300 nM Avg” value (M1 W101A receptor [2]) was 3.90.
`CCCOC1CCN(C[C@@H](C)CN2C(=O)COc3ccccc32)CC1` was tested, and the “3 μM Avg.” value (M1 W101A receptor [1]) was 4.51 and the “300 nM Avg” value (M1 W101A receptor [2]) was 4.15.
With `CCCCC1CCN(C[C@@H](C)Cn2c(=O)ccc3ccccc32)CC1.O=C(O)C(O)C(O)C(=O)O` the “3 μM Avg.” value (M1 W101A receptor [1]) was 4.50 and the “300 nM Avg” value (M1 W101A receptor [2]) was 4.34.
For `CCCOC1CCN(C[C@@H](C)CN2C(=O)CCc3ccccc32)CC1.O=C(O)C(=O)O`, the “3 μM Avg.” value (M1 W101A receptor [1]) was 4.44 and the “300 nM Avg” value (M1 W101A receptor [2]) was 4.11.
For `CCCOC1CCN(C[C@@H](C)Cn2c(=O)ccc3ccccc32)CC1.O=C(O)C(=O)O`, the “3 μM Avg.” value (M1 W101A receptor [1]) was 4.37 and the “300 nM Avg” value (M1 W101A receptor [2]) was 4.29.
`CCCCC1CCN(CCCN2C(=O)CCc3cc(OC)ccc32)CC1.O=C(O)C(=O)O` was tested, and the “3 μM Avg.” value (M1 W101A receptor [1]) was 4.19 and the “300 nM Avg” value (M1 W101A receptor [2]) was 3.32.
With `CCCC=C1CCN(C[C@@H](C)CN2C(=O)COc3ccc(F)cc32)CC1.O=C(O)C(=O)O` the “3 μM Avg.” value (M1 W101A receptor [1]) was 4.17 and the “300 nM Avg” value (M1 W101A receptor [2]) was 3.81.
With `CCCCC1CCN(CCCn2c(=O)ccc3cc(F)ccc32)CC1` the “3 μM Avg.” value (M1 W101A receptor [1]) was 3.85 and the “300 nM Avg” value (M1 W101A receptor [2]) was 3.81.
For `CCCCC1CCN(C[C@@H](C)CN2C(=O)CCc3ccccc32)CC1.O=C(O)C(=O)O`, the “3 μM Avg.” value (M1 W101A receptor [1]) was 3.74 and the “300 nM Avg” value (M1 W101A receptor [2]) was 3.93.
With `CCCCC1CCN(CCn2c(=O)[nH]c3ccccc32)CC1` the “3 μM Avg.” value (M1 W101A receptor [1]) was 3.67 and the “300 nM Avg” value (M1 W101A receptor [2]) was 3.26.
In the case of `CCCCC1CCN(CCCN2C(=O)CCc3ccccc32)CC1.O=C(O)C(=O)O`, the “3 μM Avg.” value (M1 W101A receptor [1]) is reported as 3.60 and the “300 nM Avg” value (M1 W101A receptor [2]) is reported as 3.13.
With `CCCCC1CCN(C[C@@H](C)CN2C(=O)COc3ccccc32)CC1.O=C(O)C(=O)O` the “3 μM Avg.” value (M1 W101A receptor [1]) was 3.55 and the “300 nM Avg” value (M1 W101A receptor [2]) was 4.16.
With `COCCC1CCN(CCCn2c(=O)sc3ccccc32)CC1.O=C(O)C(=O)O` the “3 μM Avg.” value (M1 W101A receptor [1]) was 3.35 and the “300 nM Avg” value (M1 W101A receptor [2]) was 2.87.
For `CCCCC1CCN(CCCN2C(=O)CSc3ccccc32)CC1.O=C(O)C(=O)O`, the “3 μM Avg.” value (M1 W101A receptor [1]) was 3.34 and the “300 nM Avg” value (M1 W101A receptor [2]) was 3.30.
For `CCCCC1CCN(CCCN2C(=O)COc3ccccc32)CC1.O=C(O)C(=O)O`, the “3 μM Avg.” value (M1 W101A receptor [1]) was 3.23 and the “300 nM Avg” value (M1 W101A receptor [2]) was 3.86.
`CC(C)COc1ccc(CC(=O)N(Cc2ccc(F)cc2)C2CCN(CCCN3C(=O)OC[C@@H]3C(C)C)CC2)cc1.O=C(O)C(=O)O` was tested, and the “3 μM Avg.” value (M1 W101A receptor [1]) was 3.18 and the “300 nM Avg” value (M1 W101A receptor [2]) was 2.58.
In the case of `CCOCCC1CCN(CCCn2c(=O)[nH]c3ccccc32)CC1.O=C(O)C(F)(F)F`, the “3 μM Avg.” value (M1 W101A receptor [1]) is reported as 2.83 and the “300 nM Avg” value (M1 W101A receptor [2]) is reported as 2.70.
`CCCCC1CCN(CCCn2c(=O)oc3c(Cl)cc(Cl)c(Cl)c32)CC1.O=C(O)C(=O)O` was tested, and the “3 μM Avg.” value (M1 W101A receptor [1]) was 2.60 and the “300 nM Avg” value (M1 W101A receptor [2]) was 2.36.
In the case of `CCCCC1CCN(CCCN2C(=O)COc3ccc(C(C)=O)cc32)CC1`, the “3 μM Avg.” value (M1 W101A receptor [1]) is reported as 2.41 and the “300 nM Avg” value (M1 W101A receptor [2]) is reported as 2.86.
In the case of `CN1CCN(C2=Nc3ccccc3Oc3ccc(Cl)cc32)CC1.O=C(O)CCC(=O)O` [Loxapine], the “% Eff” value [3, 4] is reported as 3%, the EC50 (rat M1 Y381A receptor; Table 10, M1 Y381A, NA = non-active, read-out: pEC50 (converted)) is reported as 1260 nM and the “% Eff” value (rat M1 Y381A receptor; [5]) is reported as 165%.
`C[N+]1(C)[C@@H]2C[C@@H](OC(=O)[C@H](CO)c3ccccc3)C[C@H]1[C@@H]1O[C@@H]12` [NMS] was tested, and the inhib (M1 Y381A receptor) was 36%.
In the case of `O=C1CCCN1CC#CCN1CCCC1` [Oxotremorine], the “% Eff” value [3, 6] is reported as 91%, the “% Eff” value [3, 4] is reported as 91% and the EC50 ([3]; pEC50, Table 4, M1 wild type) is reported as 79.4 nM. The EC50 ([3]; pEC50, Table 10, M1 Wild-Type, NA = non-active) was 31.6 nM, the “% Eff” value (rat M1 W101A receptor; [7]) was 87% and the “% Eff” value (rat M1 W101A receptor; Table 10, maximum response relative to AC-42) was 120%. For the same molecule, the EC50 (rat M1 W101A receptor; pEC50, Table 4) was 3160 nM, the EC50 (rat M1 W101A receptor; pEC50, Table 10) was 2510 nM and the EC50 (rat M1 Y381A receptor) was 3980 nM. For the same molecule, the “% Eff” value (rat M1 Y381A receptor; [8]) was 8% and the “% Eff” value (rat M1 Y381A receptor; [5]) was 23%.
`CCCCCCOc1nsnc1C1=CCCN(C)C1` [Xanomeline] was tested, and the “% Eff” value [3, 6] was 100%, the “% Eff” value (rat M1 W101A receptor; [7]) was 106% and the “% Eff” value (rat M1 Y381A receptor; [8]) was 100%.
With `C[N+]1(C)[C@@H]2CC(OC(=O)[C@H](CO)c3ccccc3)C[C@H]1[C@@H]1O[C@@H]12` (some centres unmarked) [^3H-NMS, 1-[N-methyl-^3H]Scopolamine methyl chloride] the “binding of ^3H-NMS to receptor” value (M1 Y381 mutant receptor) was “not to the Y381 mutant receptor”.
